Some results are limits rather than exact numbers.

Data set [1] is described as follows: Liver microsomal stability, phase I (NADPH), rat. Type of data set: in vitro ADME. To be noted: for half-life at 1 h, 4.6 µM / half-life at 4.6 μM: rat, liver microsomes, pH 7.5, 0.1% DMSO, n ≥ 3, read-out: rat LM_NADPH t1/2; for rat LM_NADPH parent compound remaining at the last time point (in parentheses): 4.6 μM, 60 min. On the procedure:
(§1) Phase I: 10 mM DMSO stock solution of the test compound was preincubated at 37 °C for 15 min with rat, dog, or human liver microsomes in 0.1 M Tris–HCl buffer (pH 7.5) with 10% DMSO. The final concentration was 4.6 μM. After preincubation, the cofactors (NADPH, G6P, G6PDH, and MgCl2 predissolved in 0.1 M Tris–HCl) were added to the incubation mixture and the incubation was continued at 37 °C for 1 h.
(§2) For both phase I and II studies: At each time point (0, 5, 15, 30, and 60 min), 30 μL of the incubation mixture was diluted with 200 μL of cold CH3CN spiked with 200 nM of an appropriate internal standard, followed by centrifugation at 3270g for 15 min. The supernatant was further diluted with H2O (1:1) for analysis. A reference incubation mixture (microsomes without cofactors) was prepared for each test compound and analyzed at t = 0 and 60 min in order to verify the compound’s stability in the matrix. The two time points were diluted as for the time points of the incubation mixture above. The supernatants were analyzed by LC/MS–MS on a Waters ACQUITY UPLC/MS TQD system consisting of a TQD (triple quadrupole detector) mass spectrometer equipped with an electrospray ionization interface and a photodiode array eλ detector. Electrospray ionization was applied in positive mode. Compound-dependent parameters as MRM transitions and collision energy were developed for each compound. The analyses were run on an ACQUITY UPLC BEH C18 (50 × 2.1 mm ID, particle size 1.7 μm) with a VanGuard BEH C18 precolumn (5 × 2.1 mm ID, particle size 1.7 μm) at 40 °C, using H2O + 0.1% HCOOH (A) and CH3CN + 0.1% HCOOH (B) as the mobile phase. The percentage of test compound remaining at each time point relative to t = 0 was calculated by the response factor on the basis of the internal standard peak area. The percentage of test compound versus time was plotted and fitted by GraphPad Prism (GraphPad Software, Version 5 for Windows, CA, USA, www.graphpad.com) to estimate the compound’s half-life (t1/2), which was reported as mean value along with the standard deviation (n = 3).

Data set [2] in a line: Liver microsomal stability, phase I (NADPH), dog. Format: in vitro ADME. Conditions: for dog LM_NADPH parent compound remaining at the last time point (in parentheses): 4.6 μM, 60 min; for half-life at 4.6 μM: dog, liver microsomes, pH 7.5, 0.1% DMSO, n ≥ 3, read-out: dog LM_NADPH t1/2. Here is the method: […] The final concentration was 4.6 μM. After preincubation, the cofactors (NADPH, G6P, G6PDH, and MgCl2 predissolved in 0.1 M Tris–HCl) were added to the incubation mixture and the incubation was continued at 37 °C for 1 h.
as §2
In general terms: Liver microsomes are vesicles of endoplasmic reticulum, rich in cytochrome P450 enzymes.

Data set [3] in a line: Liver microsomal stability, phase I (NADPH), human. Conditions: for half-life at 1 h, 4.6 µM / half-life at 4.6 μM: human, liver microsomes, pH 7.5, 0.1% DMSO, n ≥ 3, read-out: human LM_NADPH t1/2; for human LM_NADPH parent compound remaining at the last time point (in parentheses): 4.6 μM, 60 min. Format: in vitro ADME. Here is the method:
as §1, §2

A further data set addresses F508del-CFTR (Homo sapiens, UniProt P13569, DEL508-508). Description: HS-YFP-based assay for CFTR activity on F508del-CFTR FRT cells rescued at 32 °C for 24 h. Type of data set: cell-based. Further details: expressed in transfected cells; key to Emax: fold increase in F508del-CFTR rescue relative to hit 3 (normalized). Conditions: for EC50: F508del-CFTR FRT cells rescued at 32 °C for 24 h, plus forskolin; for Emax: supplementary csv, same data as Tables 1–3. Put shortly:
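FRT cells co-expressing F508del-CFTR and HS-YFP (H148Q/I152L) were rescued 24 h at 32 °C, then exposed to compound plus forskolin (10 or 20 μM) for about 25 min in PBS. Iodide injection (100 mM final) quenched YFP (ex 500/em 535 nm). The initial dF/dt gave activity, fitted for EC50 and for Emax relative to a reference hit.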

[4] abbreviates: mean ± SD (n = 3–6), n.a.: not active (up to 20 μM).

Sequence of F508del-CFTR (P13569 with tags, fused parts or gaps DEL508-508): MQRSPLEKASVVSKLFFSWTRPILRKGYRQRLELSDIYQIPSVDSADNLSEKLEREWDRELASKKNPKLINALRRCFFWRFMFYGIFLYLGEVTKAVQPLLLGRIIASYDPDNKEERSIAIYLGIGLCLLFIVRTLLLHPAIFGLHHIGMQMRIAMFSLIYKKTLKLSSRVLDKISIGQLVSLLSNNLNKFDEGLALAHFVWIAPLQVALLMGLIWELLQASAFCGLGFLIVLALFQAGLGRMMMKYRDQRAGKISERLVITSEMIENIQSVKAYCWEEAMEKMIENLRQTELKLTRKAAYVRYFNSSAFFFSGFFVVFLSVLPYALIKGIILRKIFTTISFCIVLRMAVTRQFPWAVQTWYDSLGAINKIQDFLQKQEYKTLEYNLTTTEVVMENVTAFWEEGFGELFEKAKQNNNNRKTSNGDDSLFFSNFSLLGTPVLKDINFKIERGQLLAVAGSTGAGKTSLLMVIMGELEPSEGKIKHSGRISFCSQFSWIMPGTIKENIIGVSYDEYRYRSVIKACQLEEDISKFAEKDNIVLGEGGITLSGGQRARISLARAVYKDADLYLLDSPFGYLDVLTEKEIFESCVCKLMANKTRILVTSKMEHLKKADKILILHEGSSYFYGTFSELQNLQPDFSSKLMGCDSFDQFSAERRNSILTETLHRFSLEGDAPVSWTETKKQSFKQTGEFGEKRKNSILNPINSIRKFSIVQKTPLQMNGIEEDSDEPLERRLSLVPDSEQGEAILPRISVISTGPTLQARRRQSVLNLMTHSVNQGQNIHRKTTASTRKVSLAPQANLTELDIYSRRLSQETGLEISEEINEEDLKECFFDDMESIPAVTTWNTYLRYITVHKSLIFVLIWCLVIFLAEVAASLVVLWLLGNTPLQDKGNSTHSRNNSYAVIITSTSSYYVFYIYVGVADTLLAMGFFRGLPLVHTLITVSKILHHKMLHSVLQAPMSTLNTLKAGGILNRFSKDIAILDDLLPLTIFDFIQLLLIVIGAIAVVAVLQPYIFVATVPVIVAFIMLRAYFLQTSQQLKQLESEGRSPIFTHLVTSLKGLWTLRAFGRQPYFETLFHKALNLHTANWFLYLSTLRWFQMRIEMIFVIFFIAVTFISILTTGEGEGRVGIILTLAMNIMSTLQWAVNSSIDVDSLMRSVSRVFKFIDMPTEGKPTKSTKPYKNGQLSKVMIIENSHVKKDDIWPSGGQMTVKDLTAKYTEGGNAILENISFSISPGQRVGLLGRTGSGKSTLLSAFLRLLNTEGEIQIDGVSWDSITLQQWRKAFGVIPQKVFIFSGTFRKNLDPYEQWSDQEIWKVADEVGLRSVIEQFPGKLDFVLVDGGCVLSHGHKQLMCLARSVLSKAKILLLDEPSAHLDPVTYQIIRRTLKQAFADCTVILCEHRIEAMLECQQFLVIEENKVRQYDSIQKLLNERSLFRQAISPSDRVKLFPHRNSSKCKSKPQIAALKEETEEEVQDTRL

Usually EC50 stands for the concentration giving half of the maximal effect. Turning to `COc1ccc2[nH]c3c(c2c1)CN(C(=O)c1cc(C(F)(F)F)[nH]n1)CC3` [Compound 3, (8-Methoxy-1,3,4,5-tetrahydropyrido[4,3-b]indol-2-yl)-[5-(trifluoromethyl)-1H-pyrazol-3-yl]methanone], the half-life at 1 h, 4.6 µM was found to be 30 ± 1 min in data set [1] and 42 ± 11 min in data set [3]. Further, the “dog LM_NADPH parent compound remaining at the last time point (in parentheses)” value (“dog LM_NADPH parent compound remaining” below) in data set [2] is reported as 68%. The half-life at 4.6 μM in data set [2] was greater than 60 min. The half-maximal effective concentration (EC50) on F508del-CFTR (setting [4]) worked out at 0.35 ± 0.13 µM. Also, the Emax at F508del-CFTR was 1 ± 0.04.
Regarding `O=C(c1cc(C(F)(F)F)[nH]n1)N1CCc2[nH]c3c(F)cccc3c2C1` [Compound 20, (6-Fluoro-1,3,4,5-tetrahydro-2H-pyrido[4,3-b]indol-2-yl)-(5-(trifluoromethyl)-1H-pyrazol-3-yl)methanone], in data set [1], the “rat LM_NADPH parent compound remaining at the last time point (in parentheses)” value worked out at 64% and the half-life at 4.6 μM was greater than 60 min. In addition, in data set [2], the “dog LM_NADPH parent compound remaining” value turned out to be 85% and the half-life at 4.6 μM is greater than 60 min. Moreover, in data set [3], the “human LM_NADPH parent compound remaining at the last time point (in parentheses)” value (shortened to “human LM_NADPH parent compound remaining”) was 78% and the half-life at 4.6 μM is greater than 60 min. Besides, the EC50 on F508del-CFTR (setting [4]) was 0.096 ± 0.021 µM. At F508del-CFTR (normalized for the activity of analogue 3, mean ± SD (n = 3–6), n.a.: not active (up to 20 μM)), the “Emax (FRT F508del-CFTR)” value is recorded as 0.96 ± 0.06. The Emax on F508del-CFTR is recorded as 0.96 ± 0.06.
In the case of `COc1cc(F)c2[nH]c3c(c2c1)CN(C(=O)c1cc(C(F)(F)F)[nH]n1)CC3` [Compound 25, (6-Fluoro-8-methoxy-1,3,4,5-tetrahydro-2H-pyrido[4,3-b]indol-2-yl)-(5-(trifluoromethyl)-1H-pyrazol-3-yl)methanone], the half-life at 1 h, 4.6 µM in data set [1] was found to be 20 ± 1 min; in data set [3], 33 ± 1 min. For the same molecule, the “dog LM_NADPH parent compound remaining” value in data set [2] is 90%. Further, in data set [2], the half-life at 4.6 μM is greater than 60 min. The EC50 at F508del-CFTR (setting [4]) stood at 0.13 ± 0.06 µM. For the same molecule, the Emax on F508del-CFTR amounted to 1.15 ± 0.13.
`O=C(c1cc(C(F)(F)F)[nH]n1)N1CCc2[nH]c3c(F)ccc(F)c3c2C1` [Compound 29, (6,9-Difluoro-1,3,4,5-tetrahydro-2H-pyrido[4,3-b]indol-2-yl)-(5-(trifluoromethyl)-1H-pyrazol-3-yl)methanone]: in data set [1], the half-life at 1 h, 4.6 µM turned out to be 50 ± 9 min. In addition, in data set [2], the “dog LM_NADPH parent compound remaining” value worked out at 93% and the half-life at 4.6 μM was greater than 60 min. Besides, in data set [3], the “human LM_NADPH parent compound remaining” value is given as >60 (60) % and the half-life at 4.6 μM was greater than 60 min. In addition, the EC50 at F508del-CFTR (setting [4]) was determined as 0.15 ± 0.08 µM. Also, the Emax on F508del-CFTR is 1.19 ± 0.15.
Turning to `Cc1ccc(F)c2[nH]c3c(c12)CN(C(=O)c1cc(C(F)(F)F)[nH]n1)CC3` [Compound 30, (6-Fluoro-9-methyl-1,3,4,5-tetrahydro-2H-pyrido[4,3-b]indol-2-yl)-(5-(trifluoromethyl)-1H-pyrazol-3-yl)methanone], the half-life at 1 h, 4.6 µM in data set [1] was determined as 32 ± 1 min. Besides, in data set [2], the “dog LM_NADPH parent compound remaining” value came to 92% and the half-life at 4.6 μM is greater than 60 min. Moreover, the half-life at 1 h, 4.6 µM in data set [3] was determined as 53 ± 2 min. The “fold increase in potency compared to hit 3” value on F508del-CFTR (EC50, F508del-CFTR FRT cells) was “more than 6 fold”. Moreover, at F508del-CFTR (setting [4]), the 50% effective concentration (EC50) was 0.06 ± 0.03 µM. In addition, the Emax at F508del-CFTR was 1.00 ± 0.09.
Turning to `Cc1ccc(F)c2[nH]c3c(c12)CN(C(=O)c1cc(C(F)(F)F)[nH]n1)[C@H](C)C3` [Compound 39, (R)-(6-Fluoro-3,9-dimethyl-1,3,4,5-tetrahydro-2H-pyrido[4,3-b]indol-2-yl)-(5-(trifluoromethyl)-1H-pyrazol-3-yl)methanone], in data set [1], the “rat LM_NADPH parent compound remaining at the last time point (in parentheses)” value stood at 70% and the half-life at 4.6 μM was greater than 60 min. In addition, in data set [2], the “dog LM_NADPH parent compound remaining” value stood at 92% and the half-life at 4.6 μM was greater than 60 min. In data set [3], the “human LM_NADPH parent compound remaining” value came to 71% and the half-life at 4.6 μM is greater than 60 min. On F508del-CFTR, the “activity on F508del-CFTR FRT cells (in words)” value was “the most potent analogue” and the Emax worked out at 1.30 ± 0.12. Moreover, the EC50 at F508del-CFTR (setting [4]) stood at 0.017 ± 0.007 µM. At F508del-CFTR (tested at 10 and 1 nM, Figure 6A), the “activity compared to VX-770” value was “slightly lower activity than VX-770”.

The record behind these values is article PMC8011931, “Identification, Structure–Activity Relationship, and Biological Characterization of 2,3,4,5-Tetrahydro-1H-pyrido[4,3-b]indoles as a Novel Class of CFTR Potentiators” (Journal of Medicinal Chemistry, 2020).
